What all share (type): functional, Homo sapiens
Holding throughout (parameters): dose or concentration left out as unconfirmed

The test system of assay [1] is Colon cancer organoid. In words: Image-based profiling of donated chemical probes and chemogenomic kinase set in O09 CRC organoid. Image analysis is performed on the sum area metric, and the data were normalized to the DMSO control. After imaging the organoid viability is measured using the OneGloEX Luciferase Assay System. The normalized viability data and sum area are reported.

Assay [2] relates to Colon cancer organoid. The assay can be described thus: Image-based profiling of donated chemical probes and chemogenomic kinase set in O21 CRC organoid. Image analysis is performed on the sum area metric, and the data were normalized to the DMSO control. After imaging the organoid viability is measured using the OneGloEX Luciferase Assay System. The normalized viability data and sum area are reported.

Assay [3] concerns Colon cancer organoid. The assay can be described thus: Image-based profiling of donated chemical probes and chemogenomic kinase set in O06 CRC organoid. Image analysis is performed on the sum area metric, and the data were normalized to the DMSO control. After imaging the organoid viability is measured using the OneGloEX Luciferase Assay System. The normalized viability data and sum area are reported.

Several values for one entry are separate records, joined by “and”; a condition that tells them apart may be missing. Identical values can stand only once.

On to `CCCCN(CCCC)C(=O)CN1C[C@@H](c2cc(OC)c3c(c2)OCO3)[C@H](C(=O)O)[C@H]1CC(C)(C)CCC.Cl`, for which the “Cell Viability” value in the assay on Colon cancer organoid [1] (Replication number 1) is 42.4098% and 26.0419%; in the assay with Colon cancer organoid [1] (Replication number 2) it was 31.2719% and 16.5316%; in the assay on Colon cancer organoid [2] (Replication number 1) it was 63.1584% and 74.5149%; with Colon cancer organoid [2] (Replication number 2), 47.1745% and 81.1225%.

Turning to `CN(C)CC#Cc1ccc(OCCCc2sc(N3CCc4cccc(C(=O)Nc5nc6ccccc6s5)c4C3)nc2C(=O)O)c(F)c1` [A-1155463], the “Cell Viability” value is 0.4141% and 9.206% in the assay on Colon cancer organoid [3] (Replication number 1); 0.1987% and 7.04% in the assay on Colon cancer organoid [3] (Replication number 2); 47.3935% and 102.037% in the assay with Colon cancer organoid [2] (Replication number 1); 50.6709% and 99.4222% in the assay on Colon cancer organoid [2] (Replication number 2).

For `CC(C)[C@H](C(=O)Nc1ccc(C(=O)NO)cc1)c1ccccc1` [AR-42], the “Cell Viability” value with Colon cancer organoid [3] (Replication number 2) is 8.903% and 23.7546%; in the assay with Colon cancer organoid [2] (Replication number 1), 145.989% and 67.015%; in the assay on Colon cancer organoid [2] (Replication number 2) it was 137.871% and 83.2339%.

As for `COc1cc2ncn(-c3cc(OCc4ccccc4C(F)(F)F)c(C(N)=O)s3)c2cc1OC` [GW843682X], the “Cell Viability” value in the assay on Colon cancer organoid [1] (Replication number 1) was 19.8463% and 25.1831%; in the assay on Colon cancer organoid [1] (Replication number 2), 19.142% and 23.8097%; in the assay with Colon cancer organoid [2] (Replication number 2), 21.0036% and 58.1504%.

As to `Cn1cc(-c2[nH]c3cc(NC(=O)[C@H](N)C4CCCCC4)cc4c3c2C=NNC4=O)cn1`, the “Cell Viability” value with Colon cancer organoid [3] (Replication number 1) was 9.563% and 27.3752%; in the assay with Colon cancer organoid [1] (Replication number 1) it was 70.4366% and 51.3636%; in the assay on Colon cancer organoid [1] (Replication number 2), 57.165% and 41.3025%.

`CN1CCN(Cc2ccc(Nc3ncc(Cl)c(Nc4ccccc4S(=O)(=O)N(C)C)n3)cc2)CC1` [DUBERMATINIB]: the “Cell Viability” value in the assay with Colon cancer organoid [3] (Replication number 1) was 1.098% and 2.141%; in the assay on Colon cancer organoid [3] (Replication number 2), 1% and 3.825%; in the assay with Colon cancer organoid [1] (Replication number 1), 4.849% and 7.106%; in the assay with Colon cancer organoid [1] (Replication number 2), 5.761% and 10.5011%.

Take `C=CC(=O)N1CCC([C@@H]2CCNc3c(C(N)=O)c(-c4ccc(Oc5ccccc5)cc4)nn32)CC1` [ZANUBRUTINIB]: the “Cell Viability” value in the assay with Colon cancer organoid [1] (Replication number 1) was 34.0987% and 32.6632%; in the assay with Colon cancer organoid [1] (Replication number 2), 34.2694% and 25.3214%; in the assay with Colon cancer organoid [2] (Replication number 1) it was 87.382% and 84.1812%; with Colon cancer organoid [2] (Replication number 2), 88.1261% and 101.331%.

Turning to `COc1c(OCCCN2CCOCC2)ccc2c1N=C(NC(=O)c1cnc(N)nc1)N1CCN=C21` [COPANLISIB], the “Cell Viability” value in the assay with Colon cancer organoid [3] (Replication number 1) was 2.47% and 7.411%; with Colon cancer organoid [3] (Replication number 2), 1.939% and 5.676%; in the assay on Colon cancer organoid [1] (Replication number 1) it was 12.735% and 9.949%; with Colon cancer organoid [1] (Replication number 2) it was 17.4919% and 14.9013%.

Regarding `CCn1cc(-c2ccnc3[nH]c(-c4cccc(CN(C)C)c4)cc23)c(-c2ccc(NC(=O)N(C)C)cc2)n1` [GSK-1070916], the “Cell Viability” value was 22.2316% and 23.9614% with Colon cancer organoid [1] (Replication number 1); 25.9157% and 31.5843% with Colon cancer organoid [1] (Replication number 2); 76.6328% and 71.3589% with Colon cancer organoid [2] (Replication number 1); 81.5265% and 81.1803% in the assay with Colon cancer organoid [2] (Replication number 2).

With `CCS(=O)(=O)Nc1ccc(Oc2ccc(F)cc2F)c(-c2cn(C)c(=O)c3[nH]ccc23)c1` [MIVEBRESIB], the “Cell Viability” value in the assay with Colon cancer organoid [1] (Replication number 1) was 15.7549% and 20.0077%; in the assay on Colon cancer organoid [1] (Replication number 2), 18.5163% and 23.3766%; with Colon cancer organoid [2] (Replication number 1), 39.7622% and 88.1777%; in the assay on Colon cancer organoid [2] (Replication number 2) it was 36.307% and 74.642%.

In the case of `CCN(CCO)CCCOc1ccc2c(Nc3cc(CC(=O)Nc4cccc(F)c4)[nH]n3)ncnc2c1` [DEFOSBARASERTIB], the “Cell Viability” value in the assay on Colon cancer organoid [1] (Replication number 1) was 28.5576% and 26.4792%; with Colon cancer organoid [1] (Replication number 2), 25.188% and 21.7278%; in the assay with Colon cancer organoid [2] (Replication number 1), 70.1574% and 72.5399%; with Colon cancer organoid [2] (Replication number 2), 94.5203% and 86.7079%.

As for `CCN1CCN(c2ccc(Nc3cc(N(C)C(=O)Nc4c(Cl)c(OC)cc(OC)c4Cl)ncn3)cc2)CC1` [INFIGRATINIB], the “Cell Viability” value was 23.1721% and 22.7147% in the assay with Colon cancer organoid [1] (Replication number 1); 19.8415% and 27.805% with Colon cancer organoid [1] (Replication number 2); 70.5365% and 84.7387% with Colon cancer organoid [2] (Replication number 1); 76.3419% and 87.5135% in the assay with Colon cancer organoid [2] (Replication number 2).

Regarding `COc1cc(Nc2ccnc3ccc(Br)cc23)cc(OC)c1OC`, the “Cell Viability” value was 5.197% and 15.2001% in the assay on Colon cancer organoid [3] (Replication number 2); 33.1055% and 56.4229% in the assay with Colon cancer organoid [1] (Replication number 1); 29.2651% and 46.0292% with Colon cancer organoid [1] (Replication number 2).

For the compound `CC[C@@H]1C(=O)N(C)c2cnc(Nc3ccc(C(=O)NC4CCN(C)CC4)cc3OC)nc2N1C1CCCC1` [BI-2536], the “Cell Viability” value is 16.4106% and 42.6367% with Colon cancer organoid [1] (Replication number 1); 20.1367% and 38.0631% in the assay with Colon cancer organoid [1] (Replication number 2); 25.994% and 61.8815% in the assay with Colon cancer organoid [2] (Replication number 1); 31.9179% and 66.7866% with Colon cancer organoid [2] (Replication number 2).

As for `C[C@@H](Oc1cc(-n2cnc3ccc(CN4CCN(C)CC4)cc32)sc1C(N)=O)c1ccccc1C(F)(F)F` [GSK-461364], the “Cell Viability” value in the assay with Colon cancer organoid [1] (Replication number 1) is 31.4361% and 40.8914%; in the assay with Colon cancer organoid [1] (Replication number 2), 27.3036% and 34.2838%; in the assay with Colon cancer organoid [2] (Replication number 1), 31.4353% and 81.9512%.

Turning to `CCCCNc1ncc(-c2ccc(CN3CCOCC3)cn2)c(N[C@H]2CC[C@H](O)CC2)n1`, the “Cell Viability” value in the assay with Colon cancer organoid [1] (Replication number 1) was 13.1667% and 26.0723%; with Colon cancer organoid [1] (Replication number 2) it was 15.6613% and 21.4116%; with Colon cancer organoid [2] (Replication number 1), 74.2042% and 87.3045%; in the assay with Colon cancer organoid [2] (Replication number 2) it was 78.7125% and 74.949%.

Turning to `Cn1cc(CNCC2CCN(c3ncc(C(=O)NO)cn3)CC2)c2ccccc21` [QUISINOSTAT], the “Cell Viability” value is 11.6805% and 13.0062% in the assay on Colon cancer organoid [1] (Replication number 1); 13.8403% and 11.4602% in the assay on Colon cancer organoid [1] (Replication number 2).

Consider `COc1ccc(Oc2cc(NCCC(F)(F)F)c3ncc(-c4ccc(C(=O)NC5CC5)c(C)c4)n3n2)c(F)c1F` [BAY-1217389], for which the “Cell Viability” value is 16.1792% and 31.9152% in the assay on Colon cancer organoid [1] (Replication number 1); 23.535% and 27.535% in the assay with Colon cancer organoid [1] (Replication number 2); 50.4052% and 66.3415% with Colon cancer organoid [2] (Replication number 1); 55.0801% and 82.9075% with Colon cancer organoid [2] (Replication number 2).

Regarding `Cc1cc(C)cc(C(=O)NOCCCCCC(=O)NO)c1`, the “Cell Viability” value in the assay with Colon cancer organoid [3] (Replication number 1) was 14.9423% and 44.698%; in the assay with Colon cancer organoid [3] (Replication number 2), 14.9026% and 40.6267%; with Colon cancer organoid [2] (Replication number 1), 190.206% and 106.401%; in the assay with Colon cancer organoid [2] (Replication number 2), 186.718% and 91.8258%.

Turning to `COc1cc(Nc2ncc3c(n2)-c2ccc(Cl)cc2C(c2c(F)cccc2OC)=NC3)ccc1C(=O)O` [ALISERTIB], the “Cell Viability” value is 29.1632% and 19.7233% in the assay on Colon cancer organoid [1] (Replication number 1); 34.5212% and 21.703% in the assay on Colon cancer organoid [1] (Replication number 2); 99.741% and 113.91% with Colon cancer organoid [2] (Replication number 1); 76.2077% and 81.6074% with Colon cancer organoid [2] (Replication number 2).

Turning to `CCc1cccc(CC)c1NC(=O)c1nn(C)c2c1CCc1cnc(Nc3ccc(C(=O)NC4CCN(C)CC4)cc3OC(F)(F)F)nc1-2`, the “Cell Viability” value is 78.2687% and 77.2947% in the assay on Colon cancer organoid [1] (Replication number 1); 115.279% and 90.9735% in the assay on Colon cancer organoid [1] (Replication number 2); 41.8512% and 75.8188% with Colon cancer organoid [2] (Replication number 1); 49.725% and 74.2713% in the assay on Colon cancer organoid [2] (Replication number 2).

With `CC(=O)NCC(=O)N1[C@@H]2CC[C@H]1c1ccc(Nc3ncc(C(F)(F)F)c(NC4CCC4)n3)cc12` [PF-03814735], the “Cell Viability” value with Colon cancer organoid [1] (Replication number 2) was 33.7645% and 14.7244%; with Colon cancer organoid [2] (Replication number 1) it was 48.6382% and 56.6718%; in the assay on Colon cancer organoid [2] (Replication number 2) it was 62.4502% and 65.7393%.

For the compound `N#CC1(c2ccccn2)CCN(Cc2cc(C(=O)O)c(=O)n3ccccc23)CC1` [MSD-M1PAM], the “Cell Viability” value with Colon cancer organoid [1] (Replication number 1) was 40.5981% and 75.2157%; in the assay on Colon cancer organoid [1] (Replication number 2), 57.8261% and 79.5004%; in the assay with Colon cancer organoid [2] (Replication number 1) it was 89.7237% and 93.8523%; in the assay on Colon cancer organoid [2] (Replication number 2), 106.363% and 84.1264%.

Values taken from ChEMBL document CHEMBL5724558, “Image-based profiling of drug vulnerabilities in CRC organoids” (2024).
